Reference: ChEMBL document CHEMBL1152664, “Visual observation of G-quadruplex DNA with the label-free fluorescent probe silole with aggregation-induced emission” (Bioorg Med Chem, 2009)
The source made the active and inactive calls. The rule behind the calls is not given here.

Columns and labels:
Type in all cases: nucleic-acid assay
Nucleic Acid [1] = assay: Binding affinity to 21G telomeric DNA assessed as formation of G-quadruplex DNA at 20 uM after 5 mins in KCl-deficient buffer by label-free fluorescence spectroscopy in presence of exonuclase 1
Nucleic Acid [2] = assay: Binding affinity to 21G telomeric DNA assessed as formation of G-quadruplex DNA at 20 uM after 5 mins by label-free fluorescence spectroscopy in presence of exonuclase 1 and KCl
Nucleic Acid [3] = assay: Binding affinity to 21G telomeric DNA assessed as formation of G-quadruplex DNA at 20 uM by circular dichroism assay in presence of KCl and exonuclase 1
Nucleic Acid [4] = assay: Binding affinity to 21G telomeric DNA assessed as formation of G-quadruplex DNA at 20 uM after 5 mins by label-free fluorescence spectroscopy in presence of exonuclase 1 and increasing concentration of KCl
Nucleic Acid [5] = assay: Binding affinity to 21G telomeric DNA assessed as formation of G-quadruplex DNA at 20 uM after 5 mins by label-free fluorescence spectroscopy in presence of LiCl and exonulease 1
Nucleic Acid [6] = assay: Binding affinity to single stranded DNA20 assessed as formation of G-quadruplex DNA at 20 uM by UV light illumination photographic analysis in presence of exonuclase 1 and KCl
Nucleic Acid [7] = assay: Binding affinity to 21G telomeric DNA assessed as formation of c-myc G-quadruplex DNA at 20 uM by UV light illumination photographic analysis in presence of exonuclase 1 and KCl
Nucleic Acid [8] = assay: Binding affinity to 21G telomeric DNA assessed as formation of c-kit G-quadruplex DNA at 20 uM by UV light illumination photographic analysis in presence of exonuclase 1 and KCl
Nucleic Acid [9] = assay: Binding affinity to 21G telomeric DNA assessed as formation of VEGF G-quadruplex DNA at 20 uM by UV light illumination photographic analysis in presence of exonuclase 1 and KCl
Nucleic Acid [10] = assay: Binding affinity to 21G telomeric DNA assessed as formation of d(G4T4g4) quadruplex DNA at 20 uM after 5 mins by label-free fluorescence spectroscopy in presence of exonuclase 1 and Na+ cation
Nucleic Acid [11] = assay: Binding affinity to 21G telomeric DNA assessed as formation of d(G4T4g4) quadruplex DNA at 20 uM after 5 mins in Na+ cation-deficient buffer by label-free fluorescence spectroscopy in presence of exonuclase 1
Nucleic Acid [12] = assay: Binding affinity to 21G telomeric DNA assessed as formation of G-quadruplex DNA at 20 uM after 45 mins in KCl-deficient buffer by label-free fluorescence spectroscopy in presence of exonuclase 1 and TMPyP4
Nucleic Acid [13] = assay: Binding affinity to single stranded DNA20 assessed as formation of G-quadruplex DNA at 20 uM after 45 mins in KCl-deficient buffer by label-free fluorescence spectroscopy in presence of exonuclase 1 and TMPyP4
Nucleic Acid [14] = assay: Binding affinity to 21G telomeric DNA assessed as formation of G-quadruplex DNA at 20 uM after 45 mins by label-free fluorescence spectroscopy in presence of exonuclase 1, Li+ cation and TMPyP4
Nucleic Acid [15] = assay: Binding affinity to 21G telomeric DNA assessed as formation of G-quadruplex DNA at 20 uM after 45 mins by label-free fluorescence spectroscopy in presence of exonuclase 1, KCl and TMPyP4
Nucleic Acid [16] = assay: Binding affinity to 21G telomeric DNA assessed as formation of G-quadruplex DNA at 20 uM by UV light illumination photographic analysis in presence of exonuclase 1 and bis-(benzimidazole)aryl
Nucleic Acid [17] = assay: Binding affinity to single stranded DNA23 assessed as formation of G-quadruplex DNA at 20 uM by circular dichroism assay in presence of sodium cation and exonuclase 1
Nucleic Acid [18] = assay: Binding affinity to single stranded DNA20 assessed as formation of G-quadruplex DNA at 20 uM by UV light illumination photographic analysis in presence of exonuclase 1 and bis-(benzimidazole)aryl
Nucleic Acid [19] = assay: Binding affinity to 21G telomeric DNA assessed as formation of G-quadruplex DNA at 20 uM by circular dichroism assay in presence of exonuclase 1 and bis-(benzimidazole)aryl
Nucleic Acid [20] = assay: Binding affinity to single stranded DNA20 assessed as formation of G-quadruplex DNA at 20 uM by circular dichroism assay in presence of exonuclase 1 and bis-(benzimidazole)aryl
Nucleic Acid [21] = assay: Binding affinity to single stranded DNA20 assessed as formation of G-quadruplex DNA at 20 uM by UV light illumination photographic analysis in presence of exonuclase 1 and sodium cation
Nucleic Acid [22] = assay: Binding affinity to single stranded DNA20 assessed as formation of G-quadruplex DNA at 20 uM by UV light illumination photographic analysis in presence of exonuclase 1 and lithium cation
Nucleic Acid [23] = assay: Binding affinity to single stranded DNA18 assessed as formation of G-quadruplex DNA at 20 uM by UV light illumination photographic analysis in presence of exonuclase 1 and KCl
Nucleic Acid [24] = assay: Binding affinity to single stranded DNA18 assessed as formation of G-quadruplex DNA at 20 uM by UV light illumination photographic analysis in presence of exonuclase 1 and sodium cation
Nucleic Acid [25] = assay: Binding affinity to single stranded DNA18 assessed as formation of G-quadruplex DNA at 20 uM by UV light illumination photographic analysis in presence of exonuclase 1 and lithium cation
Nucleic Acid [26] = assay: Binding affinity to single stranded DNA23 assessed as formation of G-quadruplex DNA at 20 uM by UV light illumination photographic analysis in presence of exonuclase 1 and sodium cation
Nucleic Acid [27] = assay: Binding affinity to single stranded DNA23 assessed as formation of G-quadruplex DNA at 20 uM by UV light illumination photographic analysis in presence of exonuclase 1 and KCl
Nucleic Acid [28] = assay: Binding affinity to single stranded DNA23 assessed as formation of G-quadruplex DNA at 20 uM by UV light illumination photographic analysis in presence of exonuclase 1 and lithium cation
Nucleic Acid [29] = assay: Binding affinity to single stranded DNA18 assessed as formation of G-quadruplex DNA at 20 uM by circular dichroism assay in presence of KCl and exonuclase 1
Nucleic Acid [30] = assay: Binding affinity to single stranded DNA18 assessed as formation of G-quadruplex DNA at 20 uM by circular dichroism assay in presence of lithium cation and exonuclase 1
Nucleic Acid [31] = assay: Binding affinity to single stranded DNA18 assessed as formation of G-quadruplex DNA at 20 uM by circular dichroism assay in presence of sodium cation and exonuclase 1
Nucleic Acid [32] = assay: Binding affinity to single stranded DNA20 assessed as formation of G-quadruplex DNA at 20 uM by circular dichroism assay in presence of KCl and exonuclase 1
Nucleic Acid [33] = assay: Binding affinity to single stranded DNA20 assessed as formation of G-quadruplex DNA at 20 uM by circular dichroism assay in presence of lithium cation and exonuclase 1
Nucleic Acid [34] = assay: Binding affinity to single stranded DNA20 assessed as formation of G-quadruplex DNA at 20 uM by circular dichroism assay in presence of sodium cation and exonuclase 1
Nucleic Acid [35] = assay: Binding affinity to single stranded DNA23 assessed as formation of G-quadruplex DNA at 20 uM by circular dichroism assay in presence of KCl and exonuclase 1
Nucleic Acid [36] = assay: Binding affinity to single stranded DNA23 assessed as formation of G-quadruplex DNA at 20 uM by circular dichroism assay in presence of lithium cation and exonuclase 1

Question: `C[N+](C)(C)CCC[Si]1(C)C(c2ccccc2)=C(c2ccccc2)C(c2ccccc2)=C1c1ccccc1` was tested. Which Activity (Nucleic Acid [1]) did it give?
Answer: inactive

Question: What about the Activity (Nucleic Acid [2]) of the same compound?
Answer: Active

Question: What about the Activity (Nucleic Acid [3]) of the same compound?
Answer: Active

Question: What about the Activity (Nucleic Acid [4]) of the same compound?
Answer: Active

Question: What about the Activity (Nucleic Acid [5]) of the same compound?
Answer: inactive

Question: What about the Activity (Nucleic Acid [6]) of the same compound?
Answer: inactive

Question: What about the Activity (Nucleic Acid [7]) of the same compound?
Answer: Active

Question: What about the Activity (Nucleic Acid [8]) of the same compound?
Answer: Active

Question: What about the Activity (Nucleic Acid [9]) of the same compound?
Answer: Active

Question: What about the Activity (Nucleic Acid [10]) of the same compound?
Answer: Active

Question: And the Activity (Nucleic Acid [11])?
Answer: inactive

Question: And the Activity (Nucleic Acid [12])?
Answer: inactive

Question: What about the Activity (Nucleic Acid [13]) of the same compound?
Answer: inactive

Question: And the Activity (Nucleic Acid [14])?
Answer: inactive

Question: What about the Activity (Nucleic Acid [15]) of the same compound?
Answer: Active

Question: What about the Activity (Nucleic Acid [16]) of the same compound?
Answer: Active

Question: What about the Activity (Nucleic Acid [17]) of the same compound?
Answer: inactive

Question: What about the Activity (Nucleic Acid [18]) of the same compound?
Answer: inactive

Question: And the Activity (Nucleic Acid [19])?
Answer: Active

Question: What about the Activity (Nucleic Acid [20]) of the same compound?
Answer: inactive

Question: And the Activity (Nucleic Acid [21])?
Answer: inactive

Question: And the Activity (Nucleic Acid [22])?
Answer: inactive

Question: And the Activity (Nucleic Acid [23])?
Answer: inactive

Question: And the Activity (Nucleic Acid [24])?
Answer: inactive

Question: What about the Activity (Nucleic Acid [25]) of the same compound?
Answer: inactive

Question: And the Activity (Nucleic Acid [26])?
Answer: inactive

Question: What about the Activity (Nucleic Acid [27]) of the same compound?
Answer: inactive

Question: And the Activity (Nucleic Acid [28])?
Answer: inactive

Question: What about the Activity (Nucleic Acid [29]) of the same compound?
Answer: inactive

Question: And the Activity (Nucleic Acid [30])?
Answer: inactive

Question: And the Activity (Nucleic Acid [31])?
Answer: inactive

Question: And the Activity (Nucleic Acid [32])?
Answer: inactive

Question: And the Activity (Nucleic Acid [33])?
Answer: inactive

Question: What about the Activity (Nucleic Acid [34]) of the same compound?
Answer: inactive

Question: What about the Activity (Nucleic Acid [35]) of the same compound?
Answer: inactive

Question: And the Activity (Nucleic Acid [36])?
Answer: inactive
